As a reminder, the inhibition is the share of the control response that was lost under treatment. By half-life is commonly meant the time in which the quantity being followed falls by half. By inhibition in vivo is commonly meant the percentage by which the read-out fell short of the control. Read a low inhibition in vivo as a weak effect. The Tmax is the time from dosing to the highest level. For orientation: bioavailability means dose-corrected exposure relative to a reference, in per cent. Read a high bioavailability as much systemic uptake. In general, Kp refers to the ratio of the level in a tissue or fluid to that in plasma or blood.

The source of these data is ChEMBL document CHEMBL1153532, “Design and evaluation of novel biphenyl sulfonamide derivatives with potent histamine H(3) receptor inverse agonist activity” (J Med Chem, 2009).

Active and inactive are the calls of the source. The rule behind the calls is not given here.

Data set [1] addresses Histamine H3 receptor (Rattus norvegicus, UniProt Q9QYN8). Nature of the data set: Displacement of N-[3H]methylhistamine from histamine H3 receptor in rat cortex membrane. It counts as cell membranes.
Data set [2] addresses hERG (KCNH2) (Homo sapiens, UniProt Q12809). Nature of the data set: Inhibition of human ERG at 3 uM by patch clamp assay. A general note: The patch-clamp technique gives a direct electrical read-out from membranes.
A short description of data set [3]: Drug level in Sprague-Dawley rat brain at 10 mg/kg, po after 0.5 hrs. Type of data set: ADME, organism-based. Further details: dose 10 mg/kg, route oral. The settings on record: read-out: Drug uptake.
A short description of data set [4]: Half life in Sprague-Dawley rat at 10 mg/kg, po up to 21 hrs. Type of data set: ADME, organism-based. Further details: dose 10 mg/kg, route oral. The conditions noted are these: in vivo.
In data set [5] the test system is Rattus norvegicus. Nature of the data set: Inhibition of (R)-alpha-methyl histamine induced drinking in Sprague-Dawley rat dipsogenia model at 3 mg/kg, po administered 0.5 hrs before (R)-alpha-methyl histamine challenge. It counts as functional.
Data set [6] has as its target Histamine H1 receptor (Homo sapiens) (UniProt P35367). The data set can be described thus: Binding affinity to human histamine H1 receptor at 1 uM.
Data set [7] can be described thus: Tmax in Sprague-Dawley rat at 10 mg/kg, po up to 21 hrs. The conditions noted are these: in vivo. The arrangement: dose 10 mg/kg, route oral. Type of data set: ADME, organism-based.
For data set [8], the target named is Histamine H2 receptor (Homo sapiens) (UniProt P25021). Nature of the data set: Binding affinity to human histamine H2 receptor at 1 uM.
Data set [9] in a line: Oral bioavailability in Sprague-Dawley rat at 10 mg/kg, po up to 21 hrs. Type of data set: ADME, organism-based. The settings on record: in vivo.
For data set [10], the target named is Histamine H4 receptor (Homo sapiens) (UniProt Q9H3N8). The data set can be described thus: Binding affinity to human histamine H4 receptor at 1 uM.
The nature of data set [11]: in vivo. The settings on record: Sprague-Dawley, rat, brain/plasma, po, 10 mg/kg.
In data set [12] the test system is Rattus norvegicus. Nature of the data set: Inhibition of (R)-alpha-methyl histamine induced drinking in Sprague-Dawley rat dipsogenia model at 1 mg/kg, po administered 0.5 hrs before (R)-alpha-methyl histamine challenge. It counts as functional.
Data set [13] can be described thus: Plasma concentration in Sprague-Dawley rat at 10 mg/kg, po after 0.5 hrs. It counts as ADME, organism-based. The arrangement: dose 10 mg/kg, route oral.
Data set [14] relates to Rattus norvegicus. Nature of the data set: Inhibition of (R)-alpha-methyl histamine induced drinking in Sprague-Dawley rat dipsogenia model at 0.3 mg/kg, po administered 0.5 hrs before (R)-alpha-methyl histamine challenge. It counts as functional.
The subject of data set [15] is Brain. Nature of the data set: Drug level in Sprague-Dawley rat brain assessed as 4'-[2-((R)-2-Methyl-pyrrolidin-1-yl)-ethyl]-biphenyl-4-sulfonic Acid Amide level at 1 mg/kg, po after 3.5 hrs. Further details: dose 1 mg/kg, route oral. It counts as ADME, organism-based. The conditions noted are these: in vivo.
Data set [16] deals with Rattus norvegicus. The data set can be described thus: Increase in wakefulness in Sprague-Dawley rat at 1 mg/kg, po administered 4 hrs after lights out condition measured over 5 hrs period by polysomnographic method. Type of data set: functional.
Data set [17] concerns Rattus norvegicus. Nature of the data set: Increase in wakefulness in Sprague-Dawley rat at 0.1 mg/kg, po administered 4 hrs after lights out condition measured over 5 hrs period by polysomnographic method. It counts as functional, organism-based. Further details: dose 0.1 mg/kg.

Sequence of Histamine H1 receptor (Homo sapiens) (P35367 whole entry): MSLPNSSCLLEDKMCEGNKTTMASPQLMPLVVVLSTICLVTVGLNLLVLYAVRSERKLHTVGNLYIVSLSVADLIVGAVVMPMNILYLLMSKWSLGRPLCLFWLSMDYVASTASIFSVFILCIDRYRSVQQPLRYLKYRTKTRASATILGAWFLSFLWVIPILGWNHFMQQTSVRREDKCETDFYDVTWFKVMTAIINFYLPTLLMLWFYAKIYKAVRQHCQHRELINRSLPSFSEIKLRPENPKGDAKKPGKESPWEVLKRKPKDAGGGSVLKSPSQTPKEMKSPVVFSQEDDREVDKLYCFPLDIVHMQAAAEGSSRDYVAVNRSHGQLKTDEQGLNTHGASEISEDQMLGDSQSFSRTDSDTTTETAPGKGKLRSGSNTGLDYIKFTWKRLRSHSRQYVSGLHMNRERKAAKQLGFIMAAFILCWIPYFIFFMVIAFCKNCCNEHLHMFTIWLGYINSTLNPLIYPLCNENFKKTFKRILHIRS
Sequence of Histamine H4 receptor (Homo sapiens) (Q9H3N8 whole entry): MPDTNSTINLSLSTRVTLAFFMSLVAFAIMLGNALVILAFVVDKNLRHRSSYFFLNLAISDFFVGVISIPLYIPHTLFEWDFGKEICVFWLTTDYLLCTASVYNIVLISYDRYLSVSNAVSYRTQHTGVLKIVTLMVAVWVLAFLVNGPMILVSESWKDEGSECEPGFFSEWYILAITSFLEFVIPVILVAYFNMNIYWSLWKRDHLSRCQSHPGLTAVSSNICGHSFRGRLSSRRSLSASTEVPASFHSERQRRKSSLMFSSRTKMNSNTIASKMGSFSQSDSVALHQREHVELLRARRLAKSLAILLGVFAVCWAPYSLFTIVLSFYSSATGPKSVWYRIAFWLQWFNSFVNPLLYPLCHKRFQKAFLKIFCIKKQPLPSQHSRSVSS
Sequence of Histamine H2 receptor (Homo sapiens) (P25021 whole entry): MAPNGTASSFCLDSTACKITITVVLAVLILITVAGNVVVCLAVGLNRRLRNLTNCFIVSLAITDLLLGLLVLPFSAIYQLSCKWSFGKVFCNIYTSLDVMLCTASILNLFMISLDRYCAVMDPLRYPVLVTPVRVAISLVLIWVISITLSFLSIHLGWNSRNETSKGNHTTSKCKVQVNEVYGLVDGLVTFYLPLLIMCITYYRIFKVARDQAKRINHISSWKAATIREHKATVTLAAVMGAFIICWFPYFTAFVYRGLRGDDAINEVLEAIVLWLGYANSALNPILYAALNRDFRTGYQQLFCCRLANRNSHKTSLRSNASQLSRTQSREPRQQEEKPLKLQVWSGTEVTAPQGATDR
Sequence of hERG (KCNH2) (Q12809 whole entry): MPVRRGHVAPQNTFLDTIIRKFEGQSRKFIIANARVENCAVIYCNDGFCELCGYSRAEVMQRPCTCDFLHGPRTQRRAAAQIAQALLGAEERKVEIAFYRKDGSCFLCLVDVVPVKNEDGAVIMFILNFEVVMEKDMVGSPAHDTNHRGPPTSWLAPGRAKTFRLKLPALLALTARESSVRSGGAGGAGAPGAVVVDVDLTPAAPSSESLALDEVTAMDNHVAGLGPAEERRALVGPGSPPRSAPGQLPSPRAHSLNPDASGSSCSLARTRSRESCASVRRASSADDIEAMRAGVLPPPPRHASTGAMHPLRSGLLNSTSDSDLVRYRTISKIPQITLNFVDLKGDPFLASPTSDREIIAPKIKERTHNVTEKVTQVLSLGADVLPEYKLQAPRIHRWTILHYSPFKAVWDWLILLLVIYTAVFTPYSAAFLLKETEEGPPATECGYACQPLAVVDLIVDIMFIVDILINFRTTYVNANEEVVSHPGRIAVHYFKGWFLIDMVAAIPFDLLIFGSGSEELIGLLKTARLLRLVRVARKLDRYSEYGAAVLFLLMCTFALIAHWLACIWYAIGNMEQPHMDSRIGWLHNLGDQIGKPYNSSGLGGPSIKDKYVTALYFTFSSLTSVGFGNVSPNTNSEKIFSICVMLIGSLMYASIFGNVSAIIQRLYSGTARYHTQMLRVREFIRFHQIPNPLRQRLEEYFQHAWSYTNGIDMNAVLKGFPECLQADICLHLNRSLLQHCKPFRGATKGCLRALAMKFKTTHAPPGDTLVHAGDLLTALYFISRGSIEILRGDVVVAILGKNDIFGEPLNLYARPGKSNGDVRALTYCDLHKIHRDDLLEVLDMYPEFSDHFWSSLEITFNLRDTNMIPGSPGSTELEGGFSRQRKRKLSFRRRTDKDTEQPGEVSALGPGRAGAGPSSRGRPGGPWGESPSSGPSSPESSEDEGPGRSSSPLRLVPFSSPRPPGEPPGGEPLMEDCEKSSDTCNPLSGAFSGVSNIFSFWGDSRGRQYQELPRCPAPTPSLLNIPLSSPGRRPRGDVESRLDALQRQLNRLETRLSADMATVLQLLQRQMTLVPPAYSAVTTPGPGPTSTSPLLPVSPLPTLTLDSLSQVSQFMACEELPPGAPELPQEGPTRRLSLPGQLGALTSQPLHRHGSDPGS
Sequence of Histamine H3 receptor (Q9QYN8 whole entry): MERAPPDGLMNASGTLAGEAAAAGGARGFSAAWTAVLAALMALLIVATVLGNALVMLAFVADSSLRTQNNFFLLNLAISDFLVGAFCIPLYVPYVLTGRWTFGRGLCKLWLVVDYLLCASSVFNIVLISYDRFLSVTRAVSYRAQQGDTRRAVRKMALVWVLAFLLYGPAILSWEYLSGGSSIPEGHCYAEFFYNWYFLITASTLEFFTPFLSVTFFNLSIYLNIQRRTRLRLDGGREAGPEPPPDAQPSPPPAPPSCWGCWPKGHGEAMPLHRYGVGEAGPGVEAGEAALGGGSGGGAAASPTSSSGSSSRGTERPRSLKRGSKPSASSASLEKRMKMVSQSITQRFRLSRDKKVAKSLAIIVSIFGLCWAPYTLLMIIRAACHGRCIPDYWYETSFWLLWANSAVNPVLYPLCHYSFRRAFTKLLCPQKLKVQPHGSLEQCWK

Take `COC1CCN(S(=O)(=O)c2ccc(-c3ccc(CCN4CCC[C@H]4C)cc3)cc2)CC1`: in data set [1] (read-out: pKi (converted)), the Ki is […].
`C[C@@H]1CCCN1CCc1ccc(-c2ccc(S(=O)(=O)N3CCS(=O)(=O)CC3)cc2)cc1`: the Ki in [1] (read-out: pKi (converted)) was 0.933 nM.
Still for that read-out and setting: the same measure for `CC(C)NS(=O)(=O)c1cccc(-c2ccc(CCN3CCC[C@H]3C)cc2)c1`: 7.94 nM.
For the compound `CCN(CC)S(=O)(=O)c1cccc(-c2ccc(CCN3CCC[C@H]3C)cc2)c1`, the Ki in data set [1] (read-out: pKi (converted)) was 16.2 nM.
Compound `C[C@@H]1CCCN1CCc1ccc(-c2ccc(S(=O)(=O)NCC3CC3)cc2)cc1` displayed an inhibition at 3 µM in data set [2] of 54%.
As to `COC[C@H]1CCCN1S(=O)(=O)c1ccc(-c2ccc(CCN3CCC[C@H]3C)cc2)cc1`, in data set [1] (read-out: pKi (converted)), the Ki was […].
Still for that read-out and setting: for `C[C@@H]1CCCN1CCc1ccc(-c2cccc(S(=O)(=O)N3CCCCC3)c2)cc1` the value was 12.6 nM; for `CC1COCC(C)N1S(=O)(=O)c1ccc(-c2ccc(CCN3CCC[C@H]3C)cc2)cc1` (some centres undefined), […].
As for `C[C@@H]1CCCN1CCc1ccc(-c2ccc(S(=O)(=O)N3CCCCC3)cc2)cc1`, the Ki in data set [1] (read-out: pKi (converted)) was […].
In data set [2], `C[C@@H]1CCCN1CCc1ccc(-c2ccc(S(=O)(=O)NCc3ccncc3)cc2)cc1` returned an inhibition at 3 µM of 27%. Besides, the Ki in [1] (read-out: pKi (converted)) is 0.182 nM.
Compound `C[C@@H]1CCCN1CCc1ccc(-c2ccc(S(=O)(=O)NC(C)(C)CO)cc2)cc1` showed an inhibition at 3 µM in [2] of 37%.
For `C[C@@H]1CCCN1CCc1ccc(-c2ccc(S(N)(=O)=O)cc2)cc1`, the concentration at 0.5 h in [3] was 800 ng/g. The Ki in data set [1] (read-out: pKi (converted)) was […].
With `C[C@@H]1CCCN1CCc1ccc(-c2ccc(S(=O)(=O)N3Cc4ccccc4C3)cc2)cc1`, the Ki in data set [1] (read-out: pKi (converted)) is 0.501 nM.
In data set [4], `C[C@@H]1CCCN1CCc1ccc(-c2ccc(S(=O)(=O)NC3CCOCC3)cc2)cc1` showed a half-life of 138 min. Further, at 3 mg/kg the inhibition in vivo in data set [5] was 85.1%. The Activity in data set [6], in [8] and in data set [10] was under 10% throughout. Moreover, in data set [7], the time to peak (Tmax) was 48 min. Besides, the bioavailability in [9] turned out to be 62%. Further, in [11], the Kp at 0.5 h is 0.32. In data set [12], this compound gave an inhibition in vivo at 1 mg/kg of 77.5%. In addition, the results for the concentration at 0.5 h in [3] and in data set [13] were 140 ng/mL and 440 ng/mL, respectively. For the same compound, in [1] (read-out: Ki), the Ki was 2 nM.
Turning to `CCN(CC)S(=O)(=O)c1ccc(-c2ccc(CCN3CCC[C@H]3C)cc2)cc1`, in data set [1] (read-out: pKi (converted)), the Ki is 1.41 nM.
As for `C[C@@H]1CCCN1CCc1ccc(-c2ccc(S(=O)(=O)N3CCOCC3)cc2)cc1`, in data set [4], the half-life was 72 min. Moreover, the Activity in [6], in data set [8] and in data set [10] was under 10% throughout. Also, the Tmax in data set [7] turned out to be 102 min. This compound showed a bioavailability in [9] of 12%. The inhibition in vivo at 1 mg/kg in data set [12] stood at 99.8%. Moreover, the values for the concentration at 0.5 h in [3] and in [13] were 320 ng/mL and 160 ng/mL, respectively. Besides, in [14], the inhibition in vivo at 0.3 mg/kg was 34.1%. Also, the Ki in [1] (read-out: Ki) was 2 nM.
Consider `C[C@@H]1CCCN1CCc1ccc(-c2ccc(S(=O)(=O)N3CC[C@H](O)C3)cc2)cc1`, for which, in [1] (read-out: pKi (converted)), the Ki is 2.45 nM.
In data set [4], `COCCNS(=O)(=O)c1ccc(-c2ccc(CCN3CCC[C@H]3C)cc2)cc1` showed a half-life of 156 min. In data set [5], this compound displayed an inhibition in vivo at 3 mg/kg of 96.7%. Moreover, in [7], the Tmax is 12 min. In [2], this compound registered an inhibition at 3 µM of 29%. Moreover, the bioavailability in data set [9] turned out to be 22%. In data set [11], this compound returned a Kp at 0.5 h of 0.78. The compound further came in with an inhibition in vivo at 1 mg/kg in [12] of 40.7%. The concentration at 0.5 h in data set [3] is 8700 ng/mL; in data set [13], 11200 ng/mL. Also, in data set [1] (read-out: Ki), the Ki turned out to be 3 nM.
For `CCNS(=O)(=O)c1ccc(-c2ccc(CCN3CCC[C@H]3C)cc2)cc1`, the Drug uptake in data set [15] was determined as 246 ng/mL. The compound further had a half-life in data set [4] of 108 min. This compound also came in with an inhibition in vivo at 3 mg/kg in [5] of 69.6%. Further, the Activity in [6] is under 10%; in data set [8] it was under 10%; in [16] it was 40%; in data set [10], under 10%. In addition, in [7], the time to peak (Tmax) worked out at 30 min. In data set [9], this compound registered a bioavailability of 93%. In data set [17], the result was inactive. The Kp at 0.5 h in data set [11] was 2.3. In data set [12], this compound showed an inhibition in vivo at 1 mg/kg of 77.6%. Further, the concentration at 0.5 h stood at 3600 ng/mL in [3] and 1600 ng/mL in [13].
In the case of `CCNS(=O)(=O)c1cccc(-c2ccc(CCN3CCC[C@H]3C)cc2)c1`, the Ki in data set [1] (read-out: pKi (converted)) was 11 nM.
On to `C[C@@H]1CCCN1CCc1ccc(-c2ccc(S(=O)(=O)NC3CCC3)cc2)cc1`, for which the inhibition at 3 µM in [2] came out at 79%. Moreover, the Ki in data set [1] (read-out: pKi (converted)) is […].
The like results for `C[C@@H]1CCCN1CCc1ccc(-c2ccc(S(=O)(=O)NCc3ccccc3)cc2)cc1` were, in that order, 84% and […].
